Laboratory results published in PubChem BioAssay (NCI).
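GI50: concentration for 50% inhibition of growth. TGI: concentration producing complete growth inhibition.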

Columns and labels:
Assay in all cases: inhibition of tumour cell growth, NCI panel, 384-well format
NCI-H322M lung = tested on: NCI-H322M lung
SF-268 CNS = tested on: SF-268 CNS
NCI-H23 lung = tested on: NCI-H23 lung
ACHN renal = tested on: ACHN renal
UACC-257 melanoma = tested on: UACC-257 melanoma
PC-3 prostate = tested on: PC-3 prostate
DU-145 prostate = tested on: DU-145 prostate
HOP-92 NSCLC = tested on: HOP-92 NSCLC
MDA-MB-231 breast = tested on: MDA-MB-231 breast
HCT-116 colon = tested on: HCT-116 colon
OVCAR-3 ovarian = tested on: OVCAR-3 ovarian
OVCAR-8 ovarian = tested on: OVCAR-8 ovarian
RPMI-8226 leukemia = tested on: RPMI-8226 leukemia
COLO 205 colon = tested on: COLO 205 colon
T-47D breast = tested on: T-47D breast
NCI-H460 NSCLC = tested on: NCI-H460 NSCLC
SF-295 CNS = tested on: SF-295 CNS
EKVX NSCLC = tested on: EKVX NSCLC
HCC-2998 colon = tested on: HCC-2998 colon
SNB-75 CNS = tested on: SNB-75 CNS
MCF7 breast = tested on: MCF7 breast
MDA-MB-435 melanoma = tested on: MDA-MB-435 melanoma
SN12C renal = tested on: SN12C renal
HCT-15 colon = tested on: HCT-15 colon
BT-549 breast = tested on: BT-549 breast
NCI-H522 lung = tested on: NCI-H522 lung
MOLT-4 leukemia = tested on: MOLT-4 leukemia
NCI-H226 lung = tested on: NCI-H226 lung
A549 NSCLC = tested on: A549 NSCLC
KM12 colon = tested on: KM12 colon
SK-OV-3 ovarian = tested on: SK-OV-3 ovarian
HL-60(TB) leukemia = tested on: HL-60(TB) leukemia
CAKI-1 renal = tested on: CAKI-1 renal
RXF 393 renal = tested on: RXF 393 renal
SR leukemia = tested on: SR leukemia
HT29 colon = tested on: HT29 colon
OVCAR-5 ovarian = tested on: OVCAR-5 ovarian
SF-539 CNS = tested on: SF-539 CNS
MALME-3M melanoma = tested on: MALME-3M melanoma
U251 glioblastoma = tested on: U251 glioblastoma
OVCAR-4 ovarian = tested on: OVCAR-4 ovarian
SK-MEL-5 melanoma = tested on: SK-MEL-5 melanoma
LOX IMVI melanoma = tested on: LOX IMVI melanoma
MDA-MB-468 breast = tested on: MDA-MB-468 breast
SK-MEL-28 melanoma = tested on: SK-MEL-28 melanoma
UACC-62 melanoma = tested on: UACC-62 melanoma
TK-10 renal = tested on: TK-10 renal
IGROV1 ovarian = tested on: IGROV1 ovarian
NCI/ADR-RES ovarian = tested on: NCI/ADR-RES ovarian
A498 renal = tested on: A498 renal
M14 melanoma = tested on: M14 melanoma
HS 578T breast = tested on: HS 578T breast
SNB-19 CNS = tested on: SNB-19 CNS
HOP-62 NSCLC = tested on: HOP-62 NSCLC
SK-MEL-2 melanoma = tested on: SK-MEL-2 melanoma
SW-620 colon = tested on: SW-620 colon
786-0 renal = tested on: 786-0 renal
UO-31 renal = tested on: UO-31 renal
K-562 leukemia = tested on: K-562 leukemia

## CCc1c[nH]c2ncnc(N3CC[C@](N)(CNC(=O)c4ccc(F)cc4F)C3)c12
NCI-H322M lung
  GI50: 7.12 µM
  TGI: > 100 µM
SF-268 CNS
  GI50: > 100 µM
  TGI: > 100 µM
NCI-H23 lung
  GI50: 13.8 µM
  TGI: > 100 µM
ACHN renal
  GI50: 4.85 µM
  TGI: > 100 µM
UACC-257 melanoma
  GI50: 7.7 µM
  TGI: 31.1 µM
PC-3 prostate
  GI50: 0.446 µM
  TGI: 21.8 µM
DU-145 prostate
  GI50: 6.69 µM
  TGI: > 100 µM
HOP-92 NSCLC
  GI50: 29.6 µM
  TGI: > 100 µM
MDA-MB-231 breast
  GI50: 68.8 µM
  TGI: > 100 µM
HCT-116 colon
  GI50: 6.21 µM
  TGI: > 100 µM
OVCAR-3 ovarian
  GI50: 8.07 µM
  TGI: > 100 µM
OVCAR-8 ovarian
  GI50: 15 µM
  TGI: > 100 µM
RPMI-8226 leukemia
  GI50: 3.38 µM
  TGI: 30.2 µM
COLO 205 colon
  GI50: 4.95 µM
  TGI: 28.6 µM
T-47D breast
  GI50: 0.343 µM
  TGI: > 100 µM
NCI-H460 NSCLC
  GI50: 0.536 µM
  TGI: 20.2 µM
SF-295 CNS
  GI50: 1.95 µM
  TGI: > 100 µM
EKVX NSCLC
  GI50: 7.28 µM
  TGI: 46.2 µM
HCC-2998 colon
  GI50: 3.13 µM
  TGI: 88 µM
SNB-75 CNS
  GI50: 0.626 µM
  TGI: > 100 µM
MCF7 breast
  GI50: 0.375 µM
  TGI: > 100 µM
MDA-MB-435 melanoma
  GI50: 15.4 µM
  TGI: 73.4 µM
SN12C renal
  GI50: 7.5 µM
  TGI: > 100 µM
HCT-15 colon
  GI50: 5.47 µM
  TGI: > 100 µM
BT-549 breast
  GI50: 1.27 µM
  TGI: 18.4 µM
NCI-H522 lung
  GI50: 11 µM
  TGI: 35.8 µM
MOLT-4 leukemia
  GI50: 0.237 µM
  TGI: 1.76 µM
NCI-H226 lung
  GI50: 9.86 µM
  TGI: > 100 µM
A549 NSCLC
  GI50: 10.8 µM
  TGI: > 100 µM
KM12 colon
  GI50: 0.959 µM
  TGI: > 100 µM
SK-OV-3 ovarian
  GI50: 0.892 µM
  TGI: > 100 µM
HL-60(TB) leukemia
  GI50: 10.4 µM
  TGI: 23.5 µM
CAKI-1 renal
  GI50: 5.18 µM
  TGI: > 100 µM
RXF 393 renal
  GI50: 3.34 µM
  TGI: > 100 µM
SR leukemia
  GI50: 0.0603 µM
  TGI: 1.98 µM
HT29 colon
  GI50: 3.98 µM
  TGI: > 100 µM
OVCAR-5 ovarian
  GI50: 4.4 µM
  TGI: 55.8 µM
SF-539 CNS
  GI50: 0.442 µM
  TGI: > 100 µM
MALME-3M melanoma
  GI50: 8.62 µM
  TGI: 28.6 µM
U251 glioblastoma
  GI50: 2.79 µM
  TGI: > 100 µM
OVCAR-4 ovarian
  GI50: 32 µM
  TGI: > 100 µM
SK-MEL-5 melanoma
  GI50: 12.9 µM
  TGI: 28.9 µM
LOX IMVI melanoma
  GI50: 18.8 µM
  TGI: > 100 µM
MDA-MB-468 breast
  GI50: 0.454 µM
  TGI: 18.9 µM
SK-MEL-28 melanoma
  GI50: 9.04 µM
  TGI: > 100 µM
UACC-62 melanoma
  GI50: 4.26 µM
  TGI: 25.1 µM
TK-10 renal
  GI50: 1.26 µM
  TGI: 45.3 µM
IGROV1 ovarian
  GI50: 0.149 µM
  TGI: 1.71 µM
NCI/ADR-RES ovarian
  GI50: 12.3 µM
  TGI: > 100 µM
A498 renal
  GI50: 0.136 µM
  TGI: 2.09 µM
M14 melanoma
  GI50: 14.4 µM
  TGI: > 100 µM
HS 578T breast
  GI50: 2.53 µM
  TGI: 95.3 µM
SNB-19 CNS
  GI50: 3.49 µM
  TGI: > 100 µM
HOP-62 NSCLC
  GI50: 6.34 µM
  TGI: 82.3 µM

## O=C1COc2c(CCNCCN(C(=O)CCNCCc3ccc(Cl)c(Cl)c3)C3CCCCC3)ccc(O)c2N1
NCI-H322M lung
  GI50: 14.2 µM
  TGI: 27.3 µM
SF-268 CNS
  GI50: 4.73 µM
  TGI: 16.1 µM
NCI-H23 lung
  GI50: 14.8 µM
  TGI: 28 µM
ACHN renal
  GI50: 15.5 µM
  TGI: 28.9 µM
UACC-257 melanoma
  GI50: 2.75 µM
  TGI: 6.62 µM
PC-3 prostate
  GI50: 10.8 µM
  TGI: 22.8 µM
DU-145 prostate
  GI50: 16.2 µM
  TGI: 29.8 µM
HOP-92 NSCLC
  GI50: 1.89 µM
  TGI: 4.35 µM
MDA-MB-231 breast
  GI50: 1.88 µM
  TGI: 10.7 µM
SK-MEL-2 melanoma
  GI50: 1.79 µM
  TGI: 3.18 µM
HCT-116 colon
  GI50: 11.5 µM
  TGI: 23.7 µM
OVCAR-3 ovarian
  GI50: 10.3 µM
  TGI: 22 µM
SW-620 colon
  GI50: 5.25 µM
  TGI: 16.8 µM
OVCAR-8 ovarian
  GI50: 15.1 µM
  TGI: 28.5 µM
786-0 renal
  GI50: 15.8 µM
  TGI: 29.3 µM
COLO 205 colon
  GI50: 2.69 µM
  TGI: 6.13 µM
T-47D breast
  GI50: 4.22 µM
  TGI: 14.6 µM
NCI-H460 NSCLC
  GI50: 2.26 µM
  TGI: 4.96 µM
SF-295 CNS
  GI50: 13.7 µM
  TGI: 26.6 µM
EKVX NSCLC
  GI50: 12.4 µM
  TGI: 24.9 µM
SNB-75 CNS
  GI50: 2.28 µM
  TGI: 7.25 µM
MCF7 breast
  GI50: 1.89 µM
  TGI: 3.38 µM
MDA-MB-435 melanoma
  GI50: 2.12 µM
  TGI: 4.44 µM
UO-31 renal
  GI50: 17.8 µM
  TGI: 31.7 µM
SN12C renal
  GI50: 15.8 µM
  TGI: 29.3 µM
HCT-15 colon
  GI50: 17.8 µM
  TGI: 31.9 µM
K-562 leukemia
  GI50: 3.24 µM
  TGI: 10.3 µM
BT-549 breast
  GI50: 3.29 µM
  TGI: 12 µM
NCI-H522 lung
  GI50: 2.5 µM
  TGI: 5.7 µM
MOLT-4 leukemia
  GI50: 2.01 µM
  TGI: 3.45 µM
NCI-H226 lung
  GI50: 12.3 µM
  TGI: 24.8 µM
A549 NSCLC
  GI50: 17.5 µM
  TGI: 31.4 µM
KM12 colon
  GI50: 11.1 µM
  TGI: 23.3 µM
SK-OV-3 ovarian
  GI50: 15.5 µM
  TGI: 28.9 µM
HL-60(TB) leukemia
  GI50: 1.83 µM
  TGI: 3.25 µM
CAKI-1 renal
  GI50: 14.5 µM
  TGI: 27.7 µM
RXF 393 renal
  GI50: 2.86 µM
  TGI: 10.8 µM
SR leukemia
  GI50: 1.75 µM
  TGI: 3.14 µM
HT29 colon
  GI50: 13.4 µM
  TGI: 26.2 µM
OVCAR-5 ovarian
  GI50: 16.2 µM
  TGI: 29.8 µM
SF-539 CNS
  GI50: 11.2 µM
  TGI: 23.3 µM
MALME-3M melanoma
  GI50: 5.14 µM
  TGI: 15.6 µM
U251 glioblastoma
  GI50: 5.85 µM
  TGI: 18 µM
OVCAR-4 ovarian
  GI50: 16.1 µM
  TGI: 29.7 µM
SK-MEL-5 melanoma
  GI50: 6.31 µM
  TGI: 18.1 µM
MDA-MB-468 breast
  GI50: 1.83 µM
  TGI: 3.27 µM
SK-MEL-28 melanoma
  GI50: 4.31 µM
  TGI: 14.6 µM
UACC-62 melanoma
  GI50: 2.1 µM
  TGI: 4.82 µM
TK-10 renal
  GI50: 10.4 µM
  TGI: 22.2 µM
IGROV1 ovarian
  GI50: 7.16 µM
  TGI: 19.7 µM
A498 renal
  GI50: 14.9 µM
  TGI: 28.2 µM
M14 melanoma
  GI50: 4.2 µM
  TGI: 12.9 µM
HS 578T breast
  GI50: 1.76 µM
  TGI: 3.44 µM
SNB-19 CNS
  GI50: 16.8 µM
  TGI: 30.5 µM
HOP-62 NSCLC
  GI50: 14.5 µM
  TGI: 27.7 µM
